In patent US12178791B2, “Haloallylamine sulfone derivative inhibitors of lysyl oxidases and uses thereof” (Syntara Limited, priority 2018, dated 2024):
Counter-ions that a name gives are not always drawn.

Key:
Format in all cases: biochemical
[1] = molecular target: LOXL1 (Homo sapiens (Human), UniProt Q08397); experiment: Jump dilution experiment, sustained inhibition of LOXL1; conditions: jump dilution after 40 min at 37 °C with 10× or 30× IC50; vs non-inhibited controls;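 further: 30× IC50 used only where needed so inhibitor exceeds enzyme concentration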
Procedure: Jump Dilution experiment: The assay was developed using a 96 well format and the starting enzyme concentration was set 100 times higher than for the inhibition studies. […] After the incubation, the mixture was diluted 50× in assay buffer, followed by a further 2× dilution in Amplex Red-horseradish peroxidase-putrescine reaction mix (same as per the inhibition studies) prior to the fluorescent measurement. Results were expressed in % recovery of the signal after a specified time by comparison with non-inhibited controls.

[2] = molecular target: Bovine LOX (Bos taurus (Bovine), UniProt P33072); experiment: LOX inhibition, Amplex Red oxidation assay; conditions: 30 min preincubation at 37 °C, putrescine substrate
Text: Lysyl oxidase (LOX) is an extracellular copper dependent enzyme which oxidizes peptidyl lysine and hydroxylysine residues in collagen and lysine residues in elastin to produce peptidyl alpha-aminoadipic-delta-semialdehydes. […] There are five LOX family members; these are LOX, LOXL1, LOXL2, LOXL3 and LOXL4. LOX and LOXL family members can be acquired as recombinant active proteins from commercial sources, or extracted from animal tissues like bovine aorta, tendons, pig skin; or prepared from cell cultures. The inhibitory effects of the compounds of the present invention were tested against the given LOX-LOXL preparation using a method based on the detection of hydrogen peroxide with an Amplex Red oxidation assay (Zhou et al. A stable nonfluorescent derivative of resorufin for the fluorometric determination of trace hydrogen peroxide: applications in detecting the activity of phagocyte NADPH oxidase and other oxidases. Anal. Biochem. 1997; 253, 162-168). The assay was developed using either 384 or 96 well format. Briefly, in a standard black, clear bottom 384 well plate assay 25 μL of a dilution of any of the isoenzymes and orthologues in 1.2 M urea, 50 mM sodium borate buffer (pH 8.2) were added into each well in the presence of 1 μM mofegiline and 0.5 mM pargyline (to inhibit SSAO and MAO-B and MAO-A, respectively; not necessary if the enzyme is from a recombinant or purified form). […] Twenty five μL of a reaction mixture containing twice the KM concentration of putrescine (Sigma Aldrich, e.g. 20 mM for LOX, or 10 mM for LOXL2 and LOXL3), 120 μM Amplex Red (Sigma Aldrich) and 1.5 U/mL horseradish peroxidase (Sigma Aldrich) prepared in 1.2 M urea, 50 mM sodium borate buffer (pH 8.2) were then added to the corresponding wells. The above volumes were doubled in the case of 96 wells plate. The fluorescence (RFU) was read every 2.5 min for 30 min at […] 37° C., excitation 565 nm and emission 590 (Optima; BMG labtech). The slope of the kinetics for each well was calculated using MARS data analysis software (BMG labtech) and this value was used to deduce the IC50 value (Dotmatics).

[3] = molecular target: LOXL2 (Homo sapiens (Human), UniProt Q9Y4K0); experiment: LOXL2 inhibition, Amplex Red oxidation assay; conditions: 30 min preincubation at 37 °C, putrescine substrate
Text: Lysyl oxidase (LOX) is an extracellular copper dependent enzyme which oxidizes peptidyl lysine and hydroxylysine residues in collagen and lysine residues in elastin to produce peptidyl alpha-aminoadipic-delta-semialdehydes. […] There are five LOX family members; these are LOX, LOXL1, LOXL2, LOXL3 and LOXL4. LOX and LOXL family members can be acquired as recombinant active proteins from commercial sources, or extracted from animal tissues like bovine aorta, tendons, pig skin; or prepared from cell cultures. The inhibitory effects of the compounds of the present invention were tested against the given LOX-LOXL preparation using a method based on the detection of hydrogen peroxide with an Amplex Red oxidation assay (Zhou et al. A stable nonfluorescent derivative of resorufin for the fluorometric determination of trace hydrogen peroxide: applications in detecting the activity of phagocyte NADPH oxidase and other oxidases. Anal. Biochem. 1997; 253, 162-168). The assay was developed using either 384 or 96 well format. Briefly, in a standard black, clear bottom 384 well plate assay 25 μL of a dilution of any of the isoenzymes and orthologues in 1.2 M urea, 50 mM sodium borate buffer (pH 8.2) were added into each well in the presence of 1 μM mofegiline and 0.5 mM pargyline (to inhibit SSAO and MAO-B and MAO-A, respectively; not necessary if the enzyme is from a recombinant or purified form). Test compounds were dissolved in DMSO and tested in a Concentration Response Curve (CRC) with 11 data points, typically in the micromolar or nanomolar range after incubation with the enzyme for 30 min at 37° C. Twenty five μL of a reaction mixture containing twice the KM concentration of putrescine (Sigma Aldrich, e.g. 20 mM for LOX, or 10 mM for LOXL2 and LOXL3), 120 μM Amplex Red (Sigma Aldrich) and 1.5 U/mL horseradish peroxidase (Sigma Aldrich) prepared in 1.2 M urea, 50 mM sodium borate buffer (pH 8.2) were then added to the corresponding wells. The above volumes were doubled in the case of 96 wells plate. The fluorescence (RFU) was read every 2.5 min for 30 min at […] 37° C., excitation 565 nm and emission 590 (Optima; BMG labtech). The slope of the kinetics for each well was calculated using MARS data analysis software (BMG labtech) and this value was used to deduce the IC50 value (Dotmatics).

[4] = molecular target: Human recombinant SSAO/VAP-1 (Homo sapiens (Human), UniProt Q16853); experiment: Inhibition of human recombinant SSAO/VAP-1; conditions: 30 min preincubation at 37 °C, benzylamine 600 μM; read-out: SSAO/VAP-1 Activity IC50
Procedure: Human recombinant SSAO/VAP-1 amine oxidase activity was determined using the coupled colorimetric method as described for monoamine oxidase, copper-containing amine oxidases and related enzymes (Holt A. and Palcic M., A peroxidase-coupled continuous absorbance plate-reader assay for flavin monoamine oxidases, copper-containing amine oxidases and related enzymes. Nat Protoc 2006; 1: 2498-2505). Briefly, a cloned cDNA template corresponding to residues 34-763 of human SSAO/VAP-1, and incorporating a mouse Ig kappa (κ) signal sequence, N-terminal flag epitope tag and tobacco etch virus (TEV) cleavage site, was assembled in a mammalian expression vector (pLO-CMV) by Geneart AG. This vector containing human SSAO/VAP-1 residues was transfected into CHO-Kl glycosylation mutant cell line, Lec 8. A clone stably expressing human SSAO/VAP-1 was isolated and cultured in large scale. Active human SSAO/VAP-1 was purified and recovered using immunoaffinity chromatography. This was used as the source for SSAO/VAP-1 activity. A high-throughput colorimetric assay was developed using either 96 or 384 well format. Briefly, in a standard 96 well plate assay 50 μL of purified human SSAO/VAP-1 (0.25 μg/mL) in 0.1 M sodium phosphate buffer (pH 7.4) was added into each well. Test compounds were dissolved in DMSO and tested in a Concentration Response Curve (CRC) with 4-11 data points, typically in the micromolar or nanomolar range after incubation with human SSAO/VAP-1 for 30 min at 37° C. After 30 min incubation, 50 μL of the reaction mixture containing 600 μM benzylamine (Sigma Aldrich), 120 μM Amplex Red (Sigma Aldrich) and 1.5 U/mL horseradish peroxidase (Sigma Aldrich) prepared in 0.1 M sodium phosphate buffer (pH 7.4) were added to the corresponding well. The fluorescence unit (RFU) was read every 2.5 min for 30 min at 37° C. excitation 565 nm and emission 590 (Optima; BMG labtech). The slope of the kinetics for each well was calculated using MARS data analysis software (BMG labtech) and this value was used to deduce the IC50 value (Dotmatics).

[5] = molecular target: Recombinant human MAO-B (Homo sapiens (Human), UniProt P27338); experiment: Inhibition of human recombinant MAO-B; conditions: benzylamine 100 μM
Procedure: The specificity of the compounds of this invention was tested by determining their ability to inhibit MAO-B activities in vitro. Recombinant human MAO-B (0.06 mg/mL; Sigma Aldrich) was used as source of MAO-B enzyme activities. The assay was performed in a similar way as for human SSAO/VAP-1 (Example 28) except, the substrate benzylamine was used at 100 μM.

Chain of LOXL1 (Q08397 96-574, species assumed): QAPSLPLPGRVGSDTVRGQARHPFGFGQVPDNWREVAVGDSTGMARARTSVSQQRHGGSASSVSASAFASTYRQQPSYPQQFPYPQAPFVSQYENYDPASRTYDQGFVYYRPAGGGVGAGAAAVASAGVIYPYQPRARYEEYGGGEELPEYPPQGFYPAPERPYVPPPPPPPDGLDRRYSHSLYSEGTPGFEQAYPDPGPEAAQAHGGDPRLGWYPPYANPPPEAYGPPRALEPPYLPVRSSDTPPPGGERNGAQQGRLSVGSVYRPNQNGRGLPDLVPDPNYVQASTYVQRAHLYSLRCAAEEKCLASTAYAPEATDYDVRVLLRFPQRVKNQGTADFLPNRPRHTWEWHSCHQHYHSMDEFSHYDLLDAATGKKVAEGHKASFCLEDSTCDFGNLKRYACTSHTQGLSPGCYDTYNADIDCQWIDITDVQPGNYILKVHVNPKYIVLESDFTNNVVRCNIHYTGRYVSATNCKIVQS
Chain of Recombinant human MAO-B (P27338 whole entry): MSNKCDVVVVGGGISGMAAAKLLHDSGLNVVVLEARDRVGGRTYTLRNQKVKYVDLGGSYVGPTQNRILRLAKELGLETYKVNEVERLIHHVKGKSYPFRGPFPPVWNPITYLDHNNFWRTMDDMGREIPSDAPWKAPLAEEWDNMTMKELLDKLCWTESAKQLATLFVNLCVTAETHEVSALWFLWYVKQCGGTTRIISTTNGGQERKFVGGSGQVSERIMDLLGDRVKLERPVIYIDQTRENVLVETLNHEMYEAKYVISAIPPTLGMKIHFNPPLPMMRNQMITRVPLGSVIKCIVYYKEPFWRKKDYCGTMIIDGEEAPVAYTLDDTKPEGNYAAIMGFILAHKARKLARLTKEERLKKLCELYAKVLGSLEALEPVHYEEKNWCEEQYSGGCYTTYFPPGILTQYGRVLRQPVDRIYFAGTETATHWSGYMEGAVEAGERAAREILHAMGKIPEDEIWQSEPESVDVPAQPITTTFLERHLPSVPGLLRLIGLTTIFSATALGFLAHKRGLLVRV
Chain of LOXL2 (Q9Y4K0 26-774): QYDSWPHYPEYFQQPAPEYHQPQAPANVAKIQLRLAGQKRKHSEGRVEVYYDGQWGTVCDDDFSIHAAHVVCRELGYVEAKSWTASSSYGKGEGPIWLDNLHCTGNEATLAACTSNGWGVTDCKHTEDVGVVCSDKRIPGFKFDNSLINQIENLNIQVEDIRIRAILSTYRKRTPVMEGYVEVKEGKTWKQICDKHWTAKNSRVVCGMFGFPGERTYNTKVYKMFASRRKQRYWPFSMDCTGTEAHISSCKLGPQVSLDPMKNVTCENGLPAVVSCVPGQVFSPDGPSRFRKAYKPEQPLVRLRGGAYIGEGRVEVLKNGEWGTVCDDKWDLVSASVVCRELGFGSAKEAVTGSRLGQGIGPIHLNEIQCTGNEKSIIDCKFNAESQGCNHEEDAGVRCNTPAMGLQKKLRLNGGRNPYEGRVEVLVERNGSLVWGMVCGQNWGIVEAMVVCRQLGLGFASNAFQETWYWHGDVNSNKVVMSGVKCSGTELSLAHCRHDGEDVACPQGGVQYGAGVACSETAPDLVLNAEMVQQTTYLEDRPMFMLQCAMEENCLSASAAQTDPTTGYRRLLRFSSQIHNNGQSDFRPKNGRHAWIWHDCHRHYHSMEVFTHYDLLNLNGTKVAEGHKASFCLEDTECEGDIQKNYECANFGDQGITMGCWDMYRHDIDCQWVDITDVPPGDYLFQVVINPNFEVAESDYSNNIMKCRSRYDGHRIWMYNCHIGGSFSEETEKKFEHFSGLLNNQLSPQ
Chain of Human recombinant SSAO/VAP-1 (Q16853 34-763): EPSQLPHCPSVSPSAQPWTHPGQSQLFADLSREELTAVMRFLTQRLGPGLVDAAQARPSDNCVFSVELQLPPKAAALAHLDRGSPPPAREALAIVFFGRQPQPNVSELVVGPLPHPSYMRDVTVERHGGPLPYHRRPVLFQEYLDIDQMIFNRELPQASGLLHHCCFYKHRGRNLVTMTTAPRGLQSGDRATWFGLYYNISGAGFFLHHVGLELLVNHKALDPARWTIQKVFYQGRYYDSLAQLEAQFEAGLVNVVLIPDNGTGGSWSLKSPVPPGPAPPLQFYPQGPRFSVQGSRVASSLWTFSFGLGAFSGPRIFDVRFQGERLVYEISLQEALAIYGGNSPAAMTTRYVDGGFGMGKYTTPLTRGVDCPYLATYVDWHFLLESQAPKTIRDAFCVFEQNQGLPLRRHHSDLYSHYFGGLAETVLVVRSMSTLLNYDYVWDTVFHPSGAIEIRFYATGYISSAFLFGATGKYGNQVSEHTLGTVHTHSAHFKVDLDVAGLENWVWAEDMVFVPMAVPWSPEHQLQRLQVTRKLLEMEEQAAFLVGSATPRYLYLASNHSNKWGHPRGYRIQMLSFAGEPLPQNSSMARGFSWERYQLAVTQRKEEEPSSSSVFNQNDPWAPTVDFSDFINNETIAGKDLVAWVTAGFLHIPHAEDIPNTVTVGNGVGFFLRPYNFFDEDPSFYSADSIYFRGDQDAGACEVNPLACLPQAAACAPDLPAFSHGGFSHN
Chain of Bovine LOX (P33072 170-418): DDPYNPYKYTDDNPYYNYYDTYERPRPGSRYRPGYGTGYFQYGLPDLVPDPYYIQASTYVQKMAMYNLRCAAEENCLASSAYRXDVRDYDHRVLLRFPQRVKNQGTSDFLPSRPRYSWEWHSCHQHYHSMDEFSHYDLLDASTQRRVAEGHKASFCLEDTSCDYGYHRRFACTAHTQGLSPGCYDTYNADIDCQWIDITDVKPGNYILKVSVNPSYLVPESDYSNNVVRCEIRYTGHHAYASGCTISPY

| Structure (SMILES) | LOXL1 - Recovery of activity. (%) [1] | IC50 [2] | IC50 [3] | IC50 [4] | IC50 [5] |
| --- | --- | --- | --- | --- | --- |
| NC/C=C(\F)CS(=O)(=O)c1ccccn1 [Compound 30, (Z)-3-fluoro-4-(pyridin-2-ylsulfonyl)but-2-en-1-amine dihydrochloride] | 1.9% | < 10 µM | < 1 µM |  |  |
| CC(C)c1ncccc1S(=O)(=O)C/C(F)=C/CN [Compound 45, (Z)-3-fluoro-4-(2-isopropylpyridin-3-ylsulfonyl)but-2-en-1-amine dihydrochloride] | 6.6% | < 10 µM | < 1 µM | > 30 µM |  |
| CC(C)N(C(C)C)S(=O)(=O)c1ccc(NC(=O)c2ccccc2S(=O)(=O)C/C(F)=C/CN)cc1 [Compound 15, (Z)-2-((4-amino-2-fluorobut-2-en-1-yl)sulfonyl)-N-(4-(N,N-diisopropylsulfamoyl)phenyl)benzamide hydrochloride] | 26.1% | < 10 µM | < 1 µM | > 30 µM | > 30 µM |
| Cc1ccc(S(=O)(=O)C/C(F)=C/CN)cn1 [Compound 46, (Z)-3-fluoro-4-(6-methylpyridin-3-ylsulfonyl)but-2-en-1-amine dihydrochloride] | 1.0% | < 10 µM | < 1 µM |  |  |
| NC/C=C(\F)CS(=O)(=O)c1cc(C(F)(F)F)cc(C(F)(F)F)c1 [Compound 2, (Z)-4-((3,5-bis(trifluoromethyl)phenyl)sulfonyl)-3-fluorobut-2-en-1-amine hydrochloride] |  | < 10 µM | < 10 µM | > 30 µM | > 30 µM |
| NC/C=C(\F)CS(=O)(=O)c1ccccc1OCc1ccc(S(N)(=O)=O)cc1 [Compound 8, (Z)-4-((2-((4-amino-2-fluorobut-2-en-1-yl)sulfonyl)phenoxy)methyl)benzenesulfonamide hydrochloride] | 35.1% | < 1 µM | < 1 µM | > 30 µM | > 30 µM |
| NC/C=C(\F)CS(=O)(=O)c1cccc2cc(F)cnc12 [Compound 51, (Z)-3-fluoro-4-((3-fluoroquinolin-8-yl)sulfonyl)but-2-en-1-amine dihydrochloride] |  | < 10 µM | < 1 µM | > 10 µM | > 30 µM |
| CS(=O)(=O)c1ccc(S(=O)(=O)C/C(F)=C/CN)cc1 [Compound 3, (Z)-3-fluoro-4-((4-(methylsulfonyl)phenyl)sulfonyl)but-2-en-1-amine] |  | < 10 µM | < 10 µM | > 30 µM | > 30 µM |
| CC(C)N(C(C)C)S(=O)(=O)c1ccc(COc2ccccc2S(=O)(=O)C/C(F)=C/CN)cc1 [Compound 11, (Z)-4-((2-((4-amino-2-fluorobut-2-en-1-yl)sulfonyl)phenoxy)methyl)-N,N-diisopropylbenzenesulfonamide hydrochloride] | 10.2% | < 1 µM | < 1 µM | > 30 µM | > 30 µM |
| NC/C=C(\F)CS(=O)(=O)c1ccc2ccccc2n1 [Compound 32, (Z)-3-fluoro-4-(quinolin-2-ylsulfonyl)but-2-en-1-amine dihydrochloride] |  | < 10 µM | < 1 µM |  | > 30 µM |
| CC(C)NS(=O)(=O)c1ccc(COc2ccccc2S(=O)(=O)C/C(F)=C/CN)cc1 [Compound 14, (Z)-4-((2-((4-amino-2-fluorobut-2-en-1-yl)sulfonyl)phenoxy)methyl)-N-isopropylbenzenesulfonamide hydrochloride] | 1.9% | < 1 µM | < 1 µM | > 30 µM | > 30 µM |
| NC/C=C(\F)CS(=O)(=O)c1ccccc1OCc1ccccc1 [Compound 7, (Z)-4-((2-(benzyloxy)phenyl)sulfonyl)-3-fluorobut-2-en-1-amine hydrochloride] | 3.0% | < 10 µM | < 1 µM | > 30 µM | > 30 µM |
| NC/C=C(\F)CS(=O)(=O)c1cccc2ccccc12 [Compound 23, (Z)-3-fluoro-4-(naphthalen-1-ylsulfonyl)but-2-en-1-amine hydrochloride] |  | < 10 µM | < 1 µM | > 30 µM |  |
| NC/C=C(\F)CS(=O)(=O)c1ccncc1 [Compound 29, (Z)-3-fluoro-4-(pyridin-4-ylsulfonyl)but-2-en-1-amine dihydrochloride] | 8.6% | < 10 µM | < 1 µM |  |  |
| NC/C=C(\F)CS(=O)(=O)c1cccc(F)c1 [Compound 38, (Z)-3-fluoro-4-(3-fluorophenylsulfonyl)but-2-en-1-amine hydrochloride] | 1.6% | < 10 µM | < 1 µM |  |  |
